Experimental data taken from patent US4952493A, “Peptide substrates for detecting virus-specified protease activity” (priority 1987, dated 1990).
Values joined by “and” are separate entries in the source; they are usually repeats but may differ in a detail not shown here. Equal entries are not always repeated. Numbered stars: 1 amine (or outer) side, 2 acyl side, 3 side chain; on linkers, the order of the positions; unused ones are H or OH. Peptide text beside a SMILES is read from it. * marks the point of attachment. AMC = Cc1cc(=O)oc2cc(N*)ccc12; Suc = O=C(CCC(=O)[*:2])[*:1]

System: virus-specified protease activity in extracts of Poliovirus Type 2 infected HeLa-O cells
Type: biochemical
Settings: pH 5

SMILES: Cc1cc(=O)oc2cc(NC(=O)[C@H](CCC(N)=O)NC(=O)[C@H](CC(C)C)NC(=O)CNC(=O)[C@H](Cc3ccccc3)NC(=O)CCC(=O)O)ccc12 [Suc-Phe-Gly-Leu-Gln-AMC] (Suc-FGLQ-{AMC})
- Protease Activity, AMC Substrate: 22.5 and 11.4
